The numbers were not newly measured in patent US20200197364A1, “DIHYDROMYRICETIN NANOPARTICLE FORMULATIONS” (priority 2017, published 2020), which cites them from elsewhere.

Each structure is given as a SMILES string.

For series [1] the following is noted: data collected by EPA.
For series [2] the following is noted: in vivo.
For series [3] the following is noted: through intestinal mucosa.

`O=C1c2c(O)cc(O)cc2O[C@H](c2cc(O)c(O)c(O)c2)[C@H]1O` [DHM, Dihydromyricetin]: in series [1], the “Log P” value is reported as “approximately 1.31”. Moreover, the Oral bioavailability entry in series [2] is “less than 5%”. Further, the Permeability entry in series [3] is on record as “low”.
